Assay results reported in patent US11673888B2, “Bicyclic compounds as ATX inhibitors” (Hoffmann-La Roche Inc., priority 2017, dated 2023).
pIC50: −log10 of the molar value.

Molecular target: ATX (human His-tagged) (Homo sapiens (Human), UniProt Q13822)
Experiment: Human ATX Enzyme Inhibition Assay (fluorescence quenching, MR121 substrate)
Type: biochemical
Conditions: 30 nM ATX, 1 μM MR121 substrate, 30° C.
Method: Autotaxin (ATX-ENPP2) cloning: cDNA was prepared from commercial human hematopoietic cells total RNA and used as template in overlapping PCR to generate a full length human ENPP2 ORF with or without a 3′-6×His tag. These full length inserts were cloned into the pcDNA3.1V5-His TOPO (Invitrogen) vector. The DNA sequences of several single clones were verified. The DNA from a correct full length clone was used to transfect Hek293 cells for verification of protein expression. The sequence of the encoded ENPP2 conforms to Swissprot entry Q13822, with or without the additional C-terminal 6×His tag. ATX Fermentation: Recombinant protein was produced by large-scale transient transfection in 20 L controlled stirred tank bioreactors (Sartorius). During cell growth and transfection, temperature, stirrer speed, pH and dissolved oxygen concentration were maintained at 37° C., 120 rpm, 7.1 and 30% DO, respectively. […] Expression was analyzed by Western Blot, enzymatic assay and/or analytical IMAC chromatography. […] Human ATX Enzyme Inhibition Assay ATX inhibition was measured by a fluorescence quenching assay using a specifically labeled substrate analogue (MR121 substrate). […]

O=C(c1cnc(OCC2CCOCC2)c(C2CC2)c1)N1CCc2nc(C(=O)N3CCc4[nH]nnc4C3)sc2C1 [Example 1.03]
pIC50: 8.30
